Experimental data reported in the kinase profiling compilation of Christmann-Franck et al. (2016).

Legend:
Assay in all cases: KINOMEscan competition binding
Settings in all cases: compound 10.0 µM
ACVR2A (human) = ACVR2A (human) (UniProt P27037)
RPS6KA4 KD2 (human) = RPS6KA4 KD2 (human) (UniProt O75676)
CAMKK2 (human) = CAMKK2 (human) (UniProt Q96RR4)
[1] = system: KIT (human), P10721 [V559D/T670I]
DAPK1 (human) = DAPK1 (human) (UniProt P53355)
GAK (human) = GAK (human) (UniProt O14976)
DAPK3 (human) = DAPK3 (human) (UniProt O43293)
TGFBR2 (human) = TGFBR2 (human) (UniProt P37173)
MKNK2 (human) = MKNK2 (human) (UniProt Q9HBH9)
BMPR1B (human) = BMPR1B (human) (UniProt O00238)
MKNK1 (human) = MKNK1 (human) (UniProt Q9BUB5)
TNIK (human) = TNIK (human) (UniProt Q9UKE5)
MINK1 (human) = MINK1 (human) (UniProt Q8N4C8)
MAP4K4 (human) = MAP4K4 (human) (UniProt O95819)
PLK4 (human) = PLK4 (human) (UniProt O00444)
PIM1 (human) = PIM1 (human) (UniProt P11309)
CSNK1E (human) = CSNK1E (human) (UniProt P49674)
CLK1 (human) = CLK1 (human) (UniProt P49759)
MAP2K4 (human) = MAP2K4 (human) (UniProt P45985)
MAPK8 (human) = MAPK8 (human) (UniProt P45983)
TAOK3 (human) = TAOK3 (human) (UniProt Q9H2K8)
SRPK3 (human) = SRPK3 (human) (UniProt Q9UPE1)
[2] = system: KIT (human), P10721 [V559D/V654A]
RPS6KA1 KD2 (human) = RPS6KA1 KD2 (human) (UniProt Q15418)
[3] = target: JAK3 JH1 catalytic (human) (UniProt P52333)
RPS6KA2 KD2 (human) = RPS6KA2 KD2 (human) (UniProt Q15349)
PIP4K2B (human) = PIP4K2B (human) (UniProt P78356)
PIP5K1A (human) = PIP5K1A (human) (UniProt Q99755)
PIK3CG (human) = PIK3CG (human) (UniProt P48736)
[4] = system: FLT3 (human), P36888 [K663Q]
NEK2 (human) = NEK2 (human) (UniProt P51955)
RPS6KA5 KD2 (human) = RPS6KA5 KD2 (human) (UniProt O75582)
HIPK1 (human) = HIPK1 (human) (UniProt Q86Z02)
[5] = system: EIF2AK4 KD2 (human), Q9P2K8 [S808G]
CSNK2A2 (human) = CSNK2A2 (human) (UniProt P19784)
STK33 (human) = STK33 (human) (UniProt Q9BYT3)
PRKD1 (human) = PRKD1 (human) (UniProt Q15139)
ACVR1 (human) = ACVR1 (human) (UniProt Q04771)
CSNK1D (human) = CSNK1D (human) (UniProt P48730)

Chain of GAK (human) (O14976 whole entry, looked up): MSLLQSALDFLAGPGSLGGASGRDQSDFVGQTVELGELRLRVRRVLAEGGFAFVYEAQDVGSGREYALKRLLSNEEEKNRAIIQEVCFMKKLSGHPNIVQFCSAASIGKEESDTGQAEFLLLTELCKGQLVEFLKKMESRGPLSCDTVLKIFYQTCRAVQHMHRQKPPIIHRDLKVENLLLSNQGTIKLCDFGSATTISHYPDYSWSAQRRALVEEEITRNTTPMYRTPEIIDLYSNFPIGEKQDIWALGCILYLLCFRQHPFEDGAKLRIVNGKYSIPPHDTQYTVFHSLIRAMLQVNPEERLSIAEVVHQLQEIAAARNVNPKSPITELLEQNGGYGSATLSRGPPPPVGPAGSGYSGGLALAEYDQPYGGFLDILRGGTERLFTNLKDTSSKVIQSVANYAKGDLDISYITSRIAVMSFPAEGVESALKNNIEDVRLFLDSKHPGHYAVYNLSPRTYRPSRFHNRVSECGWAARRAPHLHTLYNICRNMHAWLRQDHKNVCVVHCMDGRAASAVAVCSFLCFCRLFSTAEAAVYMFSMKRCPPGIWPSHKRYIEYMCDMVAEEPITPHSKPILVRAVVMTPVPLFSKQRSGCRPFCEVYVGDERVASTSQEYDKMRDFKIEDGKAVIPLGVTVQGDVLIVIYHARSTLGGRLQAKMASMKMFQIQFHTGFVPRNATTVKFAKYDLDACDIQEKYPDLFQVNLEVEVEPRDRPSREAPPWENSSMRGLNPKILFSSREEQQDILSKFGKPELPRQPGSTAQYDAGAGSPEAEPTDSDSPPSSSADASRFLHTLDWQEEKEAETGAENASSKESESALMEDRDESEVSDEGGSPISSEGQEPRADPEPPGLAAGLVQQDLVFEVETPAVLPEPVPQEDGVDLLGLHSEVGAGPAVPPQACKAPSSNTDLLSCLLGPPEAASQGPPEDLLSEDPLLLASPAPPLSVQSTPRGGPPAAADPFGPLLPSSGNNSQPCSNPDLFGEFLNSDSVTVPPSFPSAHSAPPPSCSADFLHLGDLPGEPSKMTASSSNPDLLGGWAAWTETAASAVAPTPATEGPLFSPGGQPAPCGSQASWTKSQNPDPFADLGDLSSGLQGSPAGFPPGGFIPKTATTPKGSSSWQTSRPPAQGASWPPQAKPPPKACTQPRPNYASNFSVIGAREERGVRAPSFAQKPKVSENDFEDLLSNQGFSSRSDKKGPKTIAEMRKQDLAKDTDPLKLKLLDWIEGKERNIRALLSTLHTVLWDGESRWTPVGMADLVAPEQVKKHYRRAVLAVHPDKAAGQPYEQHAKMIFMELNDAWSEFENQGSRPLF
Chain of TGFBR2 (human) (P37173 whole entry, looked up): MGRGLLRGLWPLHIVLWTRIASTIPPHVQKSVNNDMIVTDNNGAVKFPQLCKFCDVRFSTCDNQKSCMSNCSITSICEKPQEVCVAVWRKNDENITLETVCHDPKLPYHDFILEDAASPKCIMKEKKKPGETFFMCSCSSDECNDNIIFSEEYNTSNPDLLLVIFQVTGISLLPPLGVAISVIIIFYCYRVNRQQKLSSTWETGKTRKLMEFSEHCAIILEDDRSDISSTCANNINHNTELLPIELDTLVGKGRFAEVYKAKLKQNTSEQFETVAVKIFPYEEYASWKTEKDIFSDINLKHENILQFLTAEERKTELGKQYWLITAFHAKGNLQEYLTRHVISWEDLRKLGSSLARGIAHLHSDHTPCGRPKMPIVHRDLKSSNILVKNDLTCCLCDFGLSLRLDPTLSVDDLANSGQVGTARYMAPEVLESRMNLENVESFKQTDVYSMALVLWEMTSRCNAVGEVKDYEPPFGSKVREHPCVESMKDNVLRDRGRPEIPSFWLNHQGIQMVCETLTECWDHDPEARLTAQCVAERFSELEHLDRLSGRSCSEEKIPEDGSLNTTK
Chain of MINK1 (human) (Q8N4C8 whole entry, looked up): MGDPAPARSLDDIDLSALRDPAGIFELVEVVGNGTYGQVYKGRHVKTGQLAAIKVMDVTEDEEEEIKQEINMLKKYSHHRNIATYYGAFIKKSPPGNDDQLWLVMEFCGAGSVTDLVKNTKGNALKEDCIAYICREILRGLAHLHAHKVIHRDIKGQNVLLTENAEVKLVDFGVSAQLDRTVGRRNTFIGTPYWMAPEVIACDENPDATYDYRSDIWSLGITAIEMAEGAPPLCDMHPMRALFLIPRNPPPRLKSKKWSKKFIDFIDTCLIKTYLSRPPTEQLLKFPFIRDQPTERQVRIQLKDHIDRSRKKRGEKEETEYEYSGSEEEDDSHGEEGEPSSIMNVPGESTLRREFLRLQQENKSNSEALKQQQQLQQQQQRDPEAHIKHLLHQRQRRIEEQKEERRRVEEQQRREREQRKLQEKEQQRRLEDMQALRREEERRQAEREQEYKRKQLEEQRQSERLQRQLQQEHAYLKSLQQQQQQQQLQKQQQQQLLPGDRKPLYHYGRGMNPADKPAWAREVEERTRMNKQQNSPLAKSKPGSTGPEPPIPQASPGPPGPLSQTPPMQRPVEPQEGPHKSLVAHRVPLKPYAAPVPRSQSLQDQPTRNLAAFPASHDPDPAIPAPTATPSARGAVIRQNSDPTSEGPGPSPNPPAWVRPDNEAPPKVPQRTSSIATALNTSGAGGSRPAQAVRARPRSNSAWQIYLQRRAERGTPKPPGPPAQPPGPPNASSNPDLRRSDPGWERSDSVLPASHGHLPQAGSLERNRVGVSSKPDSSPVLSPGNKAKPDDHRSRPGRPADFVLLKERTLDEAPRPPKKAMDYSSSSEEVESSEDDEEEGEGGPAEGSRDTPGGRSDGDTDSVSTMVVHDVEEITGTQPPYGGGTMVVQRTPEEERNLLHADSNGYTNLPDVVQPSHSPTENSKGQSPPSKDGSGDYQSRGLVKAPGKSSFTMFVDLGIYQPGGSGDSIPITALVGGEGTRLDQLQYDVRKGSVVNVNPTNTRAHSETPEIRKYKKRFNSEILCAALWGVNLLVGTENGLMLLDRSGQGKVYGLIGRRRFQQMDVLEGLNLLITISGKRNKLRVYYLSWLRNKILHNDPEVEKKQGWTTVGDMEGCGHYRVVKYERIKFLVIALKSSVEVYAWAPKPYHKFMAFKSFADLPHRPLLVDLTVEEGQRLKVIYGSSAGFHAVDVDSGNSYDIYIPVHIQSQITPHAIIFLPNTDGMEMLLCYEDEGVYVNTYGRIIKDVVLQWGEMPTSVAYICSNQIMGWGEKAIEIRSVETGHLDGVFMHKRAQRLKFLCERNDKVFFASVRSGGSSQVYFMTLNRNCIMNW
Chain of PIP4K2B (human) (P78356 whole entry, looked up): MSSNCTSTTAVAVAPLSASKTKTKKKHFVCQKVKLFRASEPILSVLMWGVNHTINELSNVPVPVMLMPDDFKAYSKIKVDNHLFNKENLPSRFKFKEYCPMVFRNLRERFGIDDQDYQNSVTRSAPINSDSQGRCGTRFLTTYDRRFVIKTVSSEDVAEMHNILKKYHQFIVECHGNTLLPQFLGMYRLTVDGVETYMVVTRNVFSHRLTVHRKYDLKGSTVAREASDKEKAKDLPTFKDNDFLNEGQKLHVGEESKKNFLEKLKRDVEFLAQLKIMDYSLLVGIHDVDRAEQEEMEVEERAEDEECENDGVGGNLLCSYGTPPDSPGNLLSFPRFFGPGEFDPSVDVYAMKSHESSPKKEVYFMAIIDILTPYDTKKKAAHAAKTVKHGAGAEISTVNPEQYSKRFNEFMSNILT
Chain of TNIK (human) (Q9UKE5 whole entry, looked up): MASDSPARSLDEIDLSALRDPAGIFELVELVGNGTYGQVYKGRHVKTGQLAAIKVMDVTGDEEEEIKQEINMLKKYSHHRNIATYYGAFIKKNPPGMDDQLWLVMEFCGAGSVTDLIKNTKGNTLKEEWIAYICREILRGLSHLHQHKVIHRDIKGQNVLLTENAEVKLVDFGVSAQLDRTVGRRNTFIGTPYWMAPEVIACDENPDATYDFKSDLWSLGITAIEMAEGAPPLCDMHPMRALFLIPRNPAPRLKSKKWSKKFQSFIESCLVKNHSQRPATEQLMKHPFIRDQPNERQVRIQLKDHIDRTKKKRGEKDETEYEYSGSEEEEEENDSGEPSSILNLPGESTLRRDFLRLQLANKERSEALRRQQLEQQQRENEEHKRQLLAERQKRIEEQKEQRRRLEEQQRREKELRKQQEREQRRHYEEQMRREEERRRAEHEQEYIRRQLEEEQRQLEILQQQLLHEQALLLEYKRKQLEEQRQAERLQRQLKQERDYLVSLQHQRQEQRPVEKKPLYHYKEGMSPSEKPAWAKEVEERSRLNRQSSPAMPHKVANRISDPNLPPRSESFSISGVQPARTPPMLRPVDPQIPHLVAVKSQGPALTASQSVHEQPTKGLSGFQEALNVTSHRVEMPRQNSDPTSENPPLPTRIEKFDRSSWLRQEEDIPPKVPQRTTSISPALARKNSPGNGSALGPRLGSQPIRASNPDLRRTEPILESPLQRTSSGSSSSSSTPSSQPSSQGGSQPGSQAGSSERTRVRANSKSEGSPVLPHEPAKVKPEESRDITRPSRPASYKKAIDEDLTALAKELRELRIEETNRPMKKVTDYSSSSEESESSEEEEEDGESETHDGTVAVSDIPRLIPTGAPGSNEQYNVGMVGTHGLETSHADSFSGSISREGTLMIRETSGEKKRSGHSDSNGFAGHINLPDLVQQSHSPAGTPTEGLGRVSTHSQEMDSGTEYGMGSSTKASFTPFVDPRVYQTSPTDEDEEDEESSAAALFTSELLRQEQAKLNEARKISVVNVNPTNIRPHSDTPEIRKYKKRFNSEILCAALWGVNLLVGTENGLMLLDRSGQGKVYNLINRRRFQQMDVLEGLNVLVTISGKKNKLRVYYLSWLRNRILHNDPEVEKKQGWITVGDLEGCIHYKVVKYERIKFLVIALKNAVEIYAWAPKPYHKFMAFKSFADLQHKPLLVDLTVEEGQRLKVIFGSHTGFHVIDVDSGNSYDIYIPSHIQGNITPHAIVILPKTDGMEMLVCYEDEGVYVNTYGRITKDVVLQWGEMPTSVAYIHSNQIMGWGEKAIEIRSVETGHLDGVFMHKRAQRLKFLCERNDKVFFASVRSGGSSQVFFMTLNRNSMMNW

Row | Compound | kinase still bound, per cent of control (ACVR2A (human)) [%] | kinase still bound, per cent of control (RPS6KA4 KD2 (human)) [%] | kinase still bound, per cent of control (CAMKK2 (human)) [%] | kinase still bound, per cent of control (DAPK1 (human)) [%] | kinase still bound, per cent of control (GAK (human)) [%] | kinase still bound, per cent of control (DAPK3 (human)) [%] | kinase still bound, per cent of control (TGFBR2 (human)) [%] | kinase still bound, per cent of control (MKNK2 (human)) [%] | kinase still bound, per cent of control (BMPR1B (human)) [%] | kinase still bound, per cent of control (TNIK (human)) [%] | kinase still bound, per cent of control (MINK1 (human)) [%] | kinase still bound, per cent of control (MAP4K4 (human)) [%] | kinase still bound, per cent of control (PLK4 (human)) [%] | kinase still bound, per cent of control (PIM1 (human)) [%] | kinase still bound, per cent of control (CSNK1E (human)) [%] | kinase still bound, per cent of control (CLK1 (human)) [%] | kinase still bound, per cent of control (MAPK8 (human)) [%] | kinase still bound, per cent of control (RPS6KA2 KD2 (human)) [%] | kinase still bound, per cent of control (PIP4K2B (human)) [%] | kinase still bound, per cent of control (PIP5K1A (human)) [%] | other results
1 | CS(=O)(=O)Nc1ccc(-c2ncc(/C=C3\SC(=N)NC3=O)s2)cc1 | 18 | 1.2 | 29 | 4 | 2.8 | 6.9 | 12 | 13 | 14 | 16 | 1.3 | 7.9 | 11 | 2.8 |  |  |  |  |  |  | kinase still bound, per cent of control [1]: 32%; kinase still bound, per cent of control (MKNK1 (human)): 13%
2 | CN1C(=O)[C@H]2CCC[C@H]2N(C2CCCC2)c2nc(Nc3ccc(C(N)=O)cc3)ncc21 |  | 0.55 | 33 | 3.2 | 15 | 33 |  | 16 |  | 13 | 1.8 | 3.5 | 1.6 | 6.8 | 21 | 0.9 | 29 | 20 | 9.6 | 29 | kinase still bound, per cent of control (MAP2K4 (human)): 31%; kinase still bound, per cent of control (TAOK3 (human)): 10%; kinase still bound, per cent of control (SRPK3 (human)): 27%; kinase still bound, per cent of control [2]: 4.1%; kinase still bound, per cent of control (RPS6KA1 KD2 (human)): 7.6%; kinase still bound, per cent of control [3]: 32%; kinase still bound, per cent of control (PIK3CG (human)): 11%; kinase still bound, per cent of control [4]: 14%; kinase still bound, per cent of control (NEK2 (human)): 13%
3 | N=C1NC(=O)/C(=C/c2c[nH]c(=O)c(-c3ccc(N4CCNCC4)nc3)c2)S1 |  | 0.1 |  | 2.7 | 30 | 4.7 | 33 |  | 11 | 18 | 29 | 9 |  | 4 |  | 3.5 |  | 33 | 8.4 | 14 | kinase still bound, per cent of control (RPS6KA5 KD2 (human)): 11%; kinase still bound, per cent of control (HIPK1 (human)): 0.15%; kinase still bound, per cent of control [5]: 1.4%; kinase still bound, per cent of control (CSNK2A2 (human)): 32%; kinase still bound, per cent of control (STK33 (human)): 7.2%; kinase still bound, per cent of control (SRPK3 (human)): 23%; kinase still bound, per cent of control (PRKD1 (human)): 7%; kinase still bound, per cent of control (PIK3CG (human)): 33%; kinase still bound, per cent of control (ACVR1 (human)): 29%; kinase still bound, per cent of control [4]: 33%; kinase still bound, per cent of control (NEK2 (human)): 13%
4 | N=C1NC(=O)/C(=C/c2ccc(-c3csc4ccccc34)o2)S1 | 10 |  |  | 15 |  | 29 | 2.4 | 34 |  |  |  |  | 5.2 | 8.1 | 22 | 20 | 34 | 21 | 26 | 30 | kinase still bound, per cent of control (HIPK1 (human)): 0.6%; kinase still bound, per cent of control [5]: 33%; kinase still bound, per cent of control (CSNK2A2 (human)): 11%; kinase still bound, per cent of control (CSNK1D (human)): 34%; kinase still bound, per cent of control [2]: 24%; kinase still bound, per cent of control (RPS6KA1 KD2 (human)): 14%
